# Measured values published in ChEMBL document CHEMBL3885881, “DrugMatrix”.
# Species on record: Rattus norvegicus
# Assay: DrugMatrix - Regimen: Daily Repeat
# Type: toxicity, organism-based, Sprague-Dawley
# Parameters: regimen Daily Repeat, gender Male, age 6-8 weeks
# Details: in vivo, po, route oral GAVAGE, […]; for ABSOLUTE BASOPHIL / ABSOLUTE EOSINOPHIL / ABSOLUTE LYMPHOCYTE / ABSOLUTE MONOCYTE / ABSOLUTE SEGMENTED NEUTROPHIL / BASOPHIL / EOSINOPHIL / ERYTHROCYTE COUNT / HEMATOCRIT / HEMOGLOBIN / LEUKOCYTE COUNT / LYMPHOCYTE / MEAN CORPUSCULAR HEMOGLOBIN / MEAN CORPUSCULAR HEMOGLOBIN CONCENTRATION / MEAN CORPUSCULAR VOLUME / MONOCYTE / NEUTROPHIL / NUCLEATED RED BLOOD CELLS / PLATELET COUNT: tissue Blood; for ALANINE AMINOTRANSFERASE / ALBUMIN / ALKALINE PHOSPHATASE / ASPARTATE AMINOTRANSFERASE / BLOOD UREA NITROGEN / CARBON DIOXIDE / CHLORIDE / CHOLESTEROL / CREATINE PHOSPHOKINASE / CREATININE / GLUCOSE / LACTATE DEHYDROGENASE / LIPASE / PHOSPHORUS / POTASSIUM / SODIUM / TOTAL BILIRUBIN / TOTAL PROTEIN / URIC ACID: tissue Plasma
# [1] = 100 mg/kg, 120 h, dose level Low, time 5 day
# [2] = 700 mg/kg, 72 h, dose level High, time 3 day
# [3] = 700 mg/kg, 120 h, dose level High, time 5 day
smiles,measurement,setting,value
CC(=O)Nc1cccc(O)c1 [METACETAMOL],ABSOLUTE BASOPHIL,[1],0 CELLS/uL
same,ABSOLUTE EOSINOPHIL,[1],0 CELLS/uL
same,ABSOLUTE LYMPHOCYTE,[1],14298.33 CELLS/uL
same,ABSOLUTE MONOCYTE,[1],106.33 CELLS/uL
same,ABSOLUTE SEGMENTED NEUTROPHIL,[1],1828.67 CELLS/uL
same,BASOPHIL,[1],0%
same,EOSINOPHIL,[1],0%
same,ERYTHROCYTE COUNT,[1],5.63 x10E6/uL
same,HEMATOCRIT,[1],35%
same,HEMOGLOBIN,[1],13.73 G/DL
same,LEUKOCYTE COUNT,[1],16.23 x10E3/uL
same,LYMPHOCYTE,[1],88%
same,MEAN CORPUSCULAR HEMOGLOBIN,[1],24.43 pg
same,MEAN CORPUSCULAR HEMOGLOBIN CONCENTRATION,[1],39.23 G/DL
same,MEAN CORPUSCULAR VOLUME,[1],62.23 fL
same,MONOCYTE,[1],0.67%
same,NEUTROPHIL,[1],11.33%
same,NUCLEATED RED BLOOD CELLS,[1],0.33 /100WBC
same,PLATELET COUNT,[1],1235.67 x10E3/uL
same,ALANINE AMINOTRANSFERASE,[1],58.33 u/L
same,ALBUMIN,[1],4.03 G/DL
same,ALKALINE PHOSPHATASE,[1],434.67 u/L
same,ASPARTATE AMINOTRANSFERASE,[1],95 u/L
same,BLOOD UREA NITROGEN,[1],14.67 mg/dL
same,CARBON DIOXIDE,[1],26.67 mmol/L
same,CHLORIDE,[1],101 MEQ/L
same,CHOLESTEROL,[1],68.33 mg/dL
same,CREATINE PHOSPHOKINASE,[1],455.33 u/L
same,CREATININE,[1],0.2 mg/dL
same,GLUCOSE,[1],151 mg/dL
same,LACTATE DEHYDROGENASE,[1],549 u/L
same,LIPASE,[1],10.33 u/L
same,PHOSPHORUS,[1],11.03 mg/dL
same,POTASSIUM,[1],6.46 MEQ/L
same,SODIUM,[1],140.67 MEQ/L
same,TOTAL BILIRUBIN,[1],0.17 mg/dL
same,TOTAL PROTEIN,[1],5.73 G/DL
same,URIC ACID,[1],1.6 mg/dL
same,ABSOLUTE BASOPHIL,[2],0 CELLS/uL
same,ABSOLUTE EOSINOPHIL,[2],0 CELLS/uL
same,ABSOLUTE LYMPHOCYTE,[2],14734.67 CELLS/uL
same,ABSOLUTE MONOCYTE,[2],227.67 CELLS/uL
same,ABSOLUTE SEGMENTED NEUTROPHIL,[2],1637.67 CELLS/uL
same,BASOPHIL,[2],0%
same,EOSINOPHIL,[2],0%
same,ERYTHROCYTE COUNT,[2],5.31 x10E6/uL
same,HEMATOCRIT,[2],34.37%
same,HEMOGLOBIN,[2],13.6 G/DL
same,LEUKOCYTE COUNT,[2],16.6 x10E3/uL
same,LYMPHOCYTE,[2],89%
same,MEAN CORPUSCULAR HEMOGLOBIN,[2],25.6 pg
same,MEAN CORPUSCULAR HEMOGLOBIN CONCENTRATION,[2],39.6 G/DL
same,MEAN CORPUSCULAR VOLUME,[2],64.7 fL
same,MONOCYTE,[2],1.33%
same,NEUTROPHIL,[2],9.67%
same,NUCLEATED RED BLOOD CELLS,[2],0 /100WBC
same,PLATELET COUNT,[2],1189.67 x10E3/uL
same,ALANINE AMINOTRANSFERASE,[2],61.67 u/L
same,ALBUMIN,[2],4.37 G/DL
same,ALKALINE PHOSPHATASE,[2],420.33 u/L
same,ASPARTATE AMINOTRANSFERASE,[2],80.33 u/L
same,BLOOD UREA NITROGEN,[2],15.67 mg/dL
same,CARBON DIOXIDE,[2],32.33 mmol/L
same,CHLORIDE,[2],98.67 MEQ/L
same,CHOLESTEROL,[2],94 mg/dL
same,CREATINE PHOSPHOKINASE,[2],171 u/L
same,CREATININE,[2],0.17 mg/dL
same,GLUCOSE,[2],144 mg/dL
same,LACTATE DEHYDROGENASE,[2],137 u/L
same,LIPASE,[2],10 u/L
same,PHOSPHORUS,[2],10.6 mg/dL
same,POTASSIUM,[2],6.44 MEQ/L
same,SODIUM,[2],143.63 MEQ/L
same,TOTAL BILIRUBIN,[2],0.27 mg/dL
same,TOTAL PROTEIN,[2],6 G/DL
same,URIC ACID,[2],1.33 mg/dL
same,ABSOLUTE BASOPHIL,[3],0 CELLS/uL
same,ABSOLUTE EOSINOPHIL,[3],0 CELLS/uL
same,ABSOLUTE LYMPHOCYTE,[3],13480 CELLS/uL
same,ABSOLUTE MONOCYTE,[3],247.33 CELLS/uL
same,ABSOLUTE SEGMENTED NEUTROPHIL,[3],2206 CELLS/uL
same,BASOPHIL,[3],0%
same,EOSINOPHIL,[3],0%
same,ERYTHROCYTE COUNT,[3],5.72 x10E6/uL
same,HEMATOCRIT,[3],35.17%
same,HEMOGLOBIN,[3],13.93 G/DL
same,LEUKOCYTE COUNT,[3],15.93 x10E3/uL
same,LYMPHOCYTE,[3],84.67%
same,MEAN CORPUSCULAR HEMOGLOBIN,[3],24.37 pg
same,MEAN CORPUSCULAR HEMOGLOBIN CONCENTRATION,[3],39.6 G/DL
same,MEAN CORPUSCULAR VOLUME,[3],61.53 fL
same,MONOCYTE,[3],1.67%
same,NEUTROPHIL,[3],13.67%
same,NUCLEATED RED BLOOD CELLS,[3],0.67 /100WBC
same,PLATELET COUNT,[3],1165.67 x10E3/uL
same,ALANINE AMINOTRANSFERASE,[3],57 u/L
same,ALBUMIN,[3],4.27 G/DL
same,ALKALINE PHOSPHATASE,[3],454.33 u/L
same,ASPARTATE AMINOTRANSFERASE,[3],78.67 u/L
same,BLOOD UREA NITROGEN,[3],15.67 mg/dL
same,CARBON DIOXIDE,[3],27.33 mmol/L
same,CHLORIDE,[3],105 MEQ/L
same,CHOLESTEROL,[3],78.67 mg/dL
same,CREATINE PHOSPHOKINASE,[3],239.33 u/L
same,CREATININE,[3],0.25 mg/dL
same,GLUCOSE,[3],169.67 mg/dL
same,LACTATE DEHYDROGENASE,[3],132 u/L
same,LIPASE,[3],10.33 u/L
same,PHOSPHORUS,[3],10.87 mg/dL
same,POTASSIUM,[3],7.12 MEQ/L
same,SODIUM,[3],151.07 MEQ/L
same,TOTAL BILIRUBIN,[3],0.2 mg/dL
same,TOTAL PROTEIN,[3],5.97 G/DL
same,URIC ACID,[3],2 mg/dL
